Source: PubChem BioAssay AID248 (DTP/NCI, 2004)
Values joined by “and” are separate entries in the source; they are usually repeats but may differ in a detail not shown here. Identical values can stand only once. Toxic doses and inconclusive results are not listed.

Test system: L1210 leukemia ip in BDF1 mice, survival T/C
Assay: NCI In Vivo Anticancer Drug Screen. Data for tumor model L1210 Leukemia (intraperitoneal) in B6D2F1 (BDF1) mice
Settings: endpoint: mean survival time, higher = longer survival
Procedure, shortened: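 Tumor cells were implanted, animals were treated, and survival was followed. The result divides the treated measurement by the vehicle-control measurement.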

[1] = dose: 50.0 mg/kg/injection, schedule: Q01DX001 (ip), vehicle: saline
[2] = dose: 100.0 mg/kg/injection, schedule: Q01DX001 (ip), vehicle: saline
[3] = dose: 200.0 mg/kg/injection, schedule: Q01DX001 (ip), vehicle: saline
[4] = dose: 400.0 mg/kg/injection, schedule: Q01DX001 (ip), vehicle: saline
[5] = dose: 100.0 mg/kg/injection, schedule: Q01DX009 (ip), vehicle: Klucel (hydroxypropylcellulose) (HPC)
[6] = dose: 100.0 mg/kg/injection, schedule: Q04DX003 (ip), vehicle: Klucel (hydroxypropylcellulose) (HPC)
[7] = dose: 200.0 mg/kg/injection, schedule: Q01DX009 (ip), vehicle: Klucel (hydroxypropylcellulose) (HPC)
[8] = dose: 200.0 mg/kg/injection, schedule: Q04DX003 (ip), vehicle: Klucel (hydroxypropylcellulose) (HPC)
[9] = dose: 400.0 mg/kg/injection, schedule: Q04DX003 (ip), vehicle: Klucel (hydroxypropylcellulose) (HPC)
[10] = dose: 100.0 mg/kg/injection, schedule: Q04DX003 (ip), vehicle: saline
[11] = dose: 200.0 mg/kg/injection, schedule: Q04DX003 (ip), vehicle: saline
[12] = dose: 50.0 mg/kg/injection, schedule: Q04DX002 (ip), vehicle: Klucel (hydroxypropylcellulose) (HPC)
[13] = dose: 100.0 mg/kg/injection, schedule: Q01DX009 (ip), vehicle: saline with Tween-80
[14] = dose: 200.0 mg/kg/injection, schedule: Q01DX009 (ip), vehicle: saline with Tween-80
[15] = dose: 400.0 mg/kg/injection, schedule: Q01DX009 (ip), vehicle: saline with Tween-80
[16] = dose: 400.0 mg/kg/injection, schedule: Q04DX003 (ip), vehicle: saline

For `CCCC(CCC)OC(=O)C(O)c1ccccc1` (configuration not stated), the T/C (dose: 100.0 mg/kg/injection, schedule: Q01DX001 (ip), vehicle: acetone) was 94 % of control, the T/C (dose: 200.0 mg/kg/injection, schedule: Q01DX001 (ip), vehicle: acetone) was 94 % of control and the T/C (dose: 400.0 mg/kg/injection, schedule: Q01DX001 (ip), vehicle: acetone) was 100 % of control.

For `c1ccc(C(=NN(CCN(N=C(c2ccccc2)c2ccccc2)c2ccccc2)c2ccccc2)c2ccccc2)cc1`, the T/C [1] was 101 % of control, the T/C [2] was 92 % of control and the T/C [3] was 86 % of control. The T/C [4] was 92 % of control.

With `O=S(=O)(O)c1ccc(-c2nc3ccccc3[nH]2)cc1` the T/C [1] was 104 % of control, the T/C [2] was 98 % of control and the T/C [5] was 101 % of control. The T/C [6] was 95 % of control, the T/C [3] was 93 % of control and the T/C [7] was 96 % of control. For the same compound, the T/C [8] was 103 % of control, the T/C [4] was 95 % of control and the T/C (dose: 400.0 mg/kg/injection, schedule: Q01DX009 (ip), vehicle: Klucel (hydroxypropylcellulose) (HPC)) was 96 % of control. The T/C [9] was 98 % of control.

`O=P(CCl)(Oc1ccc(Cl)cc1)Oc1ccc(Cl)cc1` was tested, and the T/C [2] was 103 % of control and the T/C [3] was 95 % of control.

`C[PH+](c1ccccc1)c1ccccc1.C[PH+](c1ccccc1)c1ccccc1.[Br][Pd][Br]` was tested, and the T/C (dose: 50.0 mg/kg/injection, schedule: Q04DX003 (ip), vehicle: saline) was 98 % of control, the T/C [10] was 105 % of control and the T/C [11] was 100 % of control.

In the case of `COC1OC(CO)C(O)C(N)C1O` (configuration not stated), the T/C [10] is reported as 109 % of control and the T/C [11] is reported as 98 % of control.

In the case of `Nc1nc(N)c2nc(CNc3ccc(C(=O)NC(CCC(=O)O)C(=O)O)cc3)cnc2n1` (configuration not stated), the T/C (dose: 0.02 mg/kg/injection, schedule: Q01DX Z (ip), vehicle: saline) is reported as 170 % of control, the T/C (dose: 0.02 mg/kg/injection, schedule: Q01DX Z (sc), vehicle: saline) is reported as 122 % of control and the T/C (dose: 0.03 mg/kg/injection, schedule: Q01DX Z (ip), vehicle: saline) is reported as 118 % of control. The T/C (dose: 0.05 mg/kg/injection, schedule: Q01DX006 (iv), vehicle: saline) was 114 % of control, the T/C (dose: 0.05 mg/kg/injection, schedule: Q01DX010 (ip), vehicle: other) was 98 % of control and 112 % of control and the T/C (dose: 0.05 mg/kg/injection, schedule: Q01DX Z (im), vehicle: saline) was 119 % of control. For the same compound, the T/C (dose: 0.06 mg/kg/injection, schedule: Q01DX Z (ip), vehicle: saline) was 105 % of control, the T/C (dose: 0.1 mg/kg/injection, schedule: Q01DX010 (ip), vehicle: other) was 108 % of control and the T/C (dose: 0.1 mg/kg/injection, schedule: Q01DX Z (im), vehicle: saline) was 113 % of control. The T/C (dose: 0.1 mg/kg/injection, schedule: Q01DX Z (ip), vehicle: saline) was 119 % of control, the T/C (dose: 0.2 mg/kg/injection, schedule: Q01DX Z (im), vehicle: saline) was 154 % of control and the T/C (dose: 0.2 mg/kg/injection, schedule: Q01DX Z (ip), vehicle: saline) was 96 % of control and 105 % of control. The T/C (dose: 0.2 mg/kg/injection, schedule: Q01DX Z (oral), vehicle: saline) was 119 % of control, the T/C (dose: 0.2 mg/kg/injection, schedule: Q01DX Z (sc), vehicle: saline) was 101 % of control and 114 % of control and the T/C (dose: 0.4 mg/kg/injection, schedule: Q01DX010 (ip), vehicle: other) was 162 % of control. The T/C (dose: 0.5 mg/kg/injection, schedule: Q01DX001 (ip), vehicle: saline) was 111 % of control and 114 % of control, the T/C (dose: 0.5 mg/kg/injection, schedule: Q01DX Z (oral), vehicle: saline) was 106 % of control and the T/C (dose: 0.5 mg/kg/injection, schedule: Q01DX Z (sc), vehicle: saline) was 103 % of control. The T/C (dose: 1.0 mg/kg/injection, schedule: Q01DX001 (ip), vehicle: saline) was 115 % of control, the T/C (dose: 1.0 mg/kg/injection, schedule: Q01DX Z (ip), vehicle: saline) was 94 % of control and the T/C (dose: 2.0 mg/kg/injection, schedule: Q01DX001 (ip), vehicle: saline) was 117 % of control and 121 % of control. The T/C (dose: 16.0 mg/kg/injection, schedule: Q01DX001 (ip), vehicle: saline) was 106 % of control and 124 % of control, the T/C (dose: 32.0 mg/kg/injection, schedule: Q01DX001 (ip), vehicle: saline) was 96 % of control and 120 % of control and the T/C (dose: 64.0 mg/kg/injection, schedule: Q01DX001 (ip), vehicle: saline) was 105 % of control. For the same compound, the T/C (dose: 128.0 mg/kg/injection, schedule: Q01DX001 (ip), vehicle: saline) was 105 % of control and 86 % of control and the T/C (dose: 256.0 mg/kg/injection, schedule: Q01DX001 (ip), vehicle: saline) was 100 % of control.

In the case of `CN(C)P(=O)(N(C)C)N(C)C`, the T/C [2] is reported as 101 % of control, the T/C [3] is reported as 98 % of control and the T/C [4] is reported as 102 % of control. For the same compound, the T/C (dose: 1:6400.0 dilution, schedule: Q01DX009 (ip), vehicle: saline) was 107 % of control.

`O=C(O)c1cccn1-c1cccc2c(-n3cccc3C(=O)O)cccc12` was tested, and the T/C (dose: 50.0 mg/kg/injection, schedule: Q04DX002 (ip), vehicle: saline + alcohol) was 99 % of control, the T/C (dose: 100.0 mg/kg/injection, schedule: Q04DX002 (ip), vehicle: saline + alcohol) was 89 % of control and the T/C (dose: 200.0 mg/kg/injection, schedule: Q04DX002 (ip), vehicle: saline + alcohol) was 96 % of control.

`NC(CSS(=O)(=O)O)=NCCCc1c[nH]c2ccccc12` was tested, and the T/C (dose: 12.5 mg/kg/injection, schedule: Q04DX002 (ip), vehicle: Klucel (hydroxypropylcellulose) (HPC)) was 100 % of control, the T/C (dose: 25.0 mg/kg/injection, schedule: Q04DX002 (ip), vehicle: Klucel (hydroxypropylcellulose) (HPC)) was 107 % of control and the T/C [12] was 107 % of control.

For `C/C=C/C=C(\CC)C(=O)OCC`, the T/C (dose: 50.0 mg/kg/injection, schedule: Q01DX009 (ip), vehicle: saline) was 115 % of control, the T/C [13] was 98 % of control and the T/C (dose: 100.0 mg/kg/injection, schedule: Q01DX009 (ip), vehicle: saline) was 99 % of control. For the same compound, the T/C [14] was 90 % of control, the T/C (dose: 200.0 mg/kg/injection, schedule: Q01DX009 (ip), vehicle: saline) was 96 % of control and the T/C [15] was 101 % of control.

With `Cc1ccc2ccccc2c1CC(=O)NN` the T/C [6] was 102 % of control, the T/C [8] was 104 % of control and the T/C [9] was 104 % of control.

`O=C(O)c1ccccc1C(=O)Nc1ccc(F)cc1` was tested, and the T/C [6] was 103 % of control, the T/C [3] was 106 % of control and the T/C [8] was 87 % of control. The T/C [4] was 96 % of control and the T/C [9] was 94 % of control.

In the case of `O=C(NCCCCC(NC(=O)OCc1ccccc1)C(=O)Nc1ccc(Nc2ccc(NC(=O)C(CCCCNC(=O)OCc3ccccc3)NC(=O)OCc3ccccc3)cc2)cc1)OCc1ccccc1` (configuration not stated), the T/C [2] is reported as 88 % of control, the T/C [3] is reported as 92 % of control and the T/C [4] is reported as 94 % of control.

For `CCOC(=O)c1cnc(SCc2ccccc2)[nH]c1=O`, the T/C [13] was 101 % of control, the T/C [14] was 91 % of control and the T/C [15] was 92 % of control.

For `Nc1nncc(-c2cnnc(N)n2)n1`, the T/C [12] was 111 % of control, the T/C (dose: 100.0 mg/kg/injection, schedule: Q04DX002 (ip), vehicle: Klucel (hydroxypropylcellulose) (HPC)) was 104 % of control and the T/C (dose: 200.0 mg/kg/injection, schedule: Q04DX002 (ip), vehicle: Klucel (hydroxypropylcellulose) (HPC)) was 111 % of control.

`CCC(=O)C(CC)c1ccccc1OC` (configuration not stated) was tested, and the T/C [13] was 95 % of control, the T/C [10] was 94 % of control and the T/C [14] was 95 % of control. For the same compound, the T/C [11] was 97 % of control, the T/C [15] was 108 % of control and the T/C [16] was 97 % of control.

With `CC(C)=CCCC(C)CCO` (configuration not stated) the T/C [2] was 94 % of control and the T/C [3] was 100 % of control.

For `N=C(N)c1ccncc1`, the T/C [10] was 104 % of control, the T/C [11] was 104 % of control and the T/C [16] was 107 % of control.

With `CCc1nc(N[N+](=O)[O-])nc(CC)c1-c1ccc([N+](=O)[O-])cc1O` the T/C (dose: 100.0 mg/kg/injection, schedule: Q04DX002 (ip), vehicle: saline with Tween-80) was 97 % of control, the T/C (dose: 200.0 mg/kg/injection, schedule: Q04DX002 (ip), vehicle: saline with Tween-80) was 87 % of control and the T/C (dose: 400.0 mg/kg/injection, schedule: Q04DX002 (ip), vehicle: saline with Tween-80) was 95 % of control.

With `Cc1ccc(C)c(CNC(=O)Nc2ccccc2Cl)c1` the T/C [5] was 97 % of control and the T/C [7] was 101 % of control.

With `COc1ccc2c(c1OC)CC[N+]1=C3CCCCC3=C(N)CC21` (configuration not stated) the T/C (dose: 100.0 mg/kg/injection, schedule: Q01DX001 (ip), vehicle: saline with Tween-80) was 97 % of control, the T/C (dose: 200.0 mg/kg/injection, schedule: Q01DX001 (ip), vehicle: saline with Tween-80) was 97 % of control and the T/C (dose: 400.0 mg/kg/injection, schedule: Q01DX001 (ip), vehicle: saline with Tween-80) was 96 % of control.
